Results on 23 compounds are retold here after patent publication US20230104936A1, “TRPML MODULATORS” (Casma Therapeutics, Inc., priority 2019, published 2023).

A value given as a limit tells only on which side of the number the result lay.

The first assay relates to TFEB. The assay can be described thus: TFEB nuclear translocation assay, HeLa wt cells. The assay is classed as cell-based. As to conditions: 2 hrs compound treatment, Table 1 does not say HeLa wt or TRPML1 KO. In outline: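 HeLa wt cells were treated with compound for 2 hrs at 37° C, then fixed in 4% PFA and immunostained for TFEB with an Alexa 488 secondary and Hoechst nuclear counterstain. Automated epifluorescence imaging at ×20 gave the ratio of nuclear TFEB intensity to a perinuclear ring region, from which AC50 was derived.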
`CN(C)S(=O)(=O)c1ccc(S(=O)(=O)C(c2cccc(F)c2N2CCCCC2)C2CC2)cc1` (single isomer, unassigned) [Compound A-983, 4-((cyclopropyl(3-fluoro-2-(piperidin-1-yl)phenyl)methyl)sulfonyl)-N,N-dimethylbenzenesulfonamide] showed an AC50 of at most 2 µM.

As to `CC(c1cccc(F)c1N1CCCCC1)S(=O)(=O)c1ccc2c(c1)CCS2(=N)=O` (single isomer, unassigned) [Compound A-960], the AC50 was at least 10 µM.

Still in this assay, the particulars now being: Homo sapiens, HeLa, 2 h, 2 hrs compound treatment, Table 1 does not say HeLa wt or TRPML1 KO.
In the case of `C[C@H]1COC[C@H](C)N1CC1CCN(c2c(F)cccc2NS(=O)(=O)c2ccc(S(=O)(=O)N(C)C)cc2)CC1` (racemic) [Compound A-763, N4-(2-{4-[(3,5-dimethylmorpholin-4-yl)methyl]piperidin-1-yl}-3-fluorophenyl)-N1,N1-dimethylbenzene-1,4-disulfonamide], the AC50 is at most 2 µM.

As to `CN(C)S(=O)(=O)c1ccc(S(=O)(=O)Nc2ccccc2C2=CCN(c3ccc(Cl)cc3F)CC2)cc1` [Compound A-19, N1-(2-(1-(4-chloro-2-fluorophenyl)-1,2,3,6-tetrahydropyridin-4-yl)phenyl)-N4,N4-dimethylbenzene-1,4-disulfonamide], the AC50 is at most 2 µM.

`COc1cccc(S(=O)(=O)Nc2ccccc2N2CCN(c3ccc(Cl)cc3F)CC2)c1` [Compound A-4, N-{2-[4-(4-chloro-2-fluorophenyl)piperazin-1-yl]phenyl}-3-methoxybenzene-1-sulfonamide] returned an AC50 of at most 2 µM. Compound `CN(C)S(=O)(=O)c1ccc(C(C)(C)Nc2ccccc2N2CCN(Cc3ccccc3)CC2)cc1` [Compound A-733, 4-(2-{[2-(4-benzylpiperazin-1-yl)phenyl]amino}propan-2-yl)-N,N-dimethylbenzene-1-sulfonamide] came in with an AC50 of 2.01 to 8 µM. For `COCC1(C)CCN(c2ccccc2NS(=O)(=O)Cc2cc(C)ccc2F)CC1` [Compound A-648, 1-(2-fluoro-5-methylphenyl)-N-{2-[4-(methoxymethyl)-4-methylpiperidin-1-yl]phenyl}methanesulfonamide], the AC50 is at most 2 µM. As for `C[C@@H]1CN(CC2CCCN(c3c(F)cccc3NS(=O)(=O)c3ccc(S(=O)(=O)N(C)C)cc3)CC2)C[C@H](C)O1` (stereo partly drawn) [Compound A-918, N4-[2-(4-{[(2R,6S)-2,6-dimethylmorpholin-4-yl]methyl}azepan-1-yl)-3-fluorophenyl]-N1,N1-dimethylbenzene-1,4-disulfonamide], the AC50 is at most 2 µM.

Regarding `Cc1ccc(N2CCOCC2)c(NS(=O)(=O)c2ccc3c(c2)CCC3)c1` [Compound A-520, N-[5-methyl-2-(morpholin-4-yl)phenyl]-2,3-dihydro-1H-indene-5-sulfonamide], the half-maximal activity concentration (AC50) is at most 2 µM. In turn, `O=S(=O)(Nc1cc(Cl)ccc1N1CCOC2(CCOCC2)C1)c1ccc2c(c1)CCC2` [Compound A-343, N-(5-chloro-2-{1,9-dioxa-4-azaspiro[5.5]undecan-4-yl}phenyl)-2,3-dihydro-1H-indene-5-sulfonamide] registered an AC50 of 2.01 to 8 µM.

Consider `O=S(=O)(Nc1ccccc1N1CCN(c2ccc(Cl)cc2F)CC1)C1CCOCC1` [Compound A-14, N-{2-[4-(4-chloro-2-fluorophenyl)piperazin-1-yl]phenyl}oxane-4-sulfonamide], for which the AC50 was in the range of 2.01 to 8 µM. Turning to `C=CP(=O)(C=C)c1ccccc1NS(=O)(=O)c1ccc(S(=O)(=O)N(C)C)cc1` [Compound A-227, N1-(2-(divinylphosphoryl)phenyl)-N4,N4-dimethylbenzene-1,4-disulfonamide], the AC50 was at least 10 µM.

Take `CN(C)S(=O)(=O)c1ccc(S(=O)(=O)n2ccc(C3CCN(c4ncc(Cl)cc4F)CC3)n2)cc1` [Compound A-96, 4-((3-(1-(5-chloro-3-fluoropyridin-2-yl)piperidin-4-yl)-1H-pyrazol-1-yl)sulfonyl)-N,N-dimethylbenzenesulfonamide]: the AC50 is at least 10 µM. Take `CS(=O)(=O)c1ccc(S(=O)(=O)Nc2ccccc2N2CCC3(CC2)CN(CC2CC2(F)F)c2cc(F)ccc23)cc1` (centres unmarked) [Compound A-468, N-(2-{1-[(2,2-difluorocyclopropyl)methyl]-6-fluoro-1,2-dihydrospiro[indole-3,4′-piperidin]-1′-yl}phenyl)-4-methanesulfonylbenzene-1-sulfonamide]: the AC50 was at most 2 µM. As to `COCCS(=O)(=O)Nc1cccc(Cl)c1N1CCOCC1` [Compound A-364, N-[3-chloro-2-(morpholin-4-yl)phenyl]-2-methoxyethane-1-sulfonamide], the AC50 was at least 10 µM. Still for that read-out and setting: the figure for `C[S+]([O-])c1ccc(S(=O)(=O)Nc2ccccc2N2CCC(c3ccc(F)cc3F)CC2)cc1` (centres unmarked) [Compound A-160, N-{2-[4-(2,4-difluorophenyl)piperidin-1-yl]phenyl}-4-methanesulfinylbenzene-1-sulfonamide] is 2.01 to 8 µM.

The compound `CN(C)S(=O)(=O)c1ccc(S(=O)(=O)Nc2ccccc2N2CCN([C@@H]3C[C@@H]4CC[C@H]3C4)CC2)cc1` (racemic) [Compound A-421, rac-N4-(2-{4-[(1R,2S,4S)-bicyclo[2.2.1]heptan-2-yl]piperazin-1-yl}phenyl)-N1,N1-dimethylbenzene-1,4-disulfonamide] came in with an AC50 of at most 2 µM. For the compound `CS(=O)(=O)c1ccc(S(=O)(=O)Nc2ccccc2N2CCC3(CC2)CN(Cc2cccnc2)c2cc(F)ccc23)cc1` [Compound A-407, N-(2-{6-fluoro-1-[(pyridin-3-yl)methyl]-1,2-dihydrospiro[indole-3,4′-piperidin]-1′-yl}phenyl)-4-methanesulfonylbenzene-1-sulfonamide], the AC50 is at most 2 µM.

`CN(C)S(=O)(=O)c1ccc(S(=O)(=O)Nc2ccccc2N2CCC(O)(C3CC3)CC2)cc1` [Compound A-420, N4-[2-(4-cyclopropyl-4-hydroxypiperidin-1-yl)phenyl]-N1,N1-dimethylbenzene-1,4-disulfonamide] displayed an AC50 of 2.01 to 8 µM.

With `O=S(=O)(Nc1ccccc1N1CCN(c2ncc(Cl)cc2F)CC1)c1ccc(S(=O)(=O)C(F)(F)F)cc1` [Compound A-178, N-{2-[4-(5-chloro-3-fluoropyridin-2-yl)piperazin-1-yl]phenyl}-4-trifluoromethanesulfonylbenzene-1-sulfonamide], the AC50 was at most 2 µM. Regarding `CN(C)S(=O)(=O)c1ccc(S(=O)(=O)Nc2ccccc2N2CC3CC2CN3c2ccc(Cl)cc2F)cc1` (centres unmarked) [Compound A-31, N4-{2-[5-(4-chloro-2-fluorophenyl)-2,5-diazabicyclo[2.2.1]heptan-2-yl]phenyl}-N1,N1-dimethylbenzene-1,4-disulfonamide], the AC50 was at most 2 µM.

Turning to `CC(C)(C)C(=O)N1CCN(c2ccccc2NS(=O)(=O)c2ccc3c(c2)CC(Cl)(Cl)C3=O)CC1` [Compound A-534, 2,2-dichloro-N-{2-[4-(2,2-dimethylpropanoyl)piperazin-1-yl]phenyl}-1-oxo-2,3-dihydro-1H-indene-5-sulfonamide], the AC50 lay within 2.01 to 8 µM. For the compound `CC(C)C(=O)N1CCN(c2ccccc2NS(=O)(=O)c2ccc(S(=O)(=O)N(C)C)cc2)CC1` [Compound A-322, N1,N1-dimethyl-N4-{2-[4-(2-methylpropanoyl)piperazin-1-yl]phenyl}benzene-1,4-disulfonamide], the AC50 was in the range of 8.01 to 9.99 µM.

What is called AC50 is the midpoint of the concentration-response curve, whichever way the signal moves.
